Assays:
[1] = biological target: T1, Vascular endothelial growth factor receptor 2 (Homo sapiens, UniProt P35968); experiment: Inhibition of VEGFR2 by cell-based assay; type: functional
[2] = biological target: T1, Vascular endothelial growth factor receptor 2; experiment: Inhibition of VEGFR2 by HTRF assay
[3] = biological target: T2, Vascular endothelial growth factor receptor 1 (Homo sapiens, UniProt P17948); experiment: Inhibition of VEGFR1 by HTRF assay
Target sequence in this assay (P17948 whole entry, looked up): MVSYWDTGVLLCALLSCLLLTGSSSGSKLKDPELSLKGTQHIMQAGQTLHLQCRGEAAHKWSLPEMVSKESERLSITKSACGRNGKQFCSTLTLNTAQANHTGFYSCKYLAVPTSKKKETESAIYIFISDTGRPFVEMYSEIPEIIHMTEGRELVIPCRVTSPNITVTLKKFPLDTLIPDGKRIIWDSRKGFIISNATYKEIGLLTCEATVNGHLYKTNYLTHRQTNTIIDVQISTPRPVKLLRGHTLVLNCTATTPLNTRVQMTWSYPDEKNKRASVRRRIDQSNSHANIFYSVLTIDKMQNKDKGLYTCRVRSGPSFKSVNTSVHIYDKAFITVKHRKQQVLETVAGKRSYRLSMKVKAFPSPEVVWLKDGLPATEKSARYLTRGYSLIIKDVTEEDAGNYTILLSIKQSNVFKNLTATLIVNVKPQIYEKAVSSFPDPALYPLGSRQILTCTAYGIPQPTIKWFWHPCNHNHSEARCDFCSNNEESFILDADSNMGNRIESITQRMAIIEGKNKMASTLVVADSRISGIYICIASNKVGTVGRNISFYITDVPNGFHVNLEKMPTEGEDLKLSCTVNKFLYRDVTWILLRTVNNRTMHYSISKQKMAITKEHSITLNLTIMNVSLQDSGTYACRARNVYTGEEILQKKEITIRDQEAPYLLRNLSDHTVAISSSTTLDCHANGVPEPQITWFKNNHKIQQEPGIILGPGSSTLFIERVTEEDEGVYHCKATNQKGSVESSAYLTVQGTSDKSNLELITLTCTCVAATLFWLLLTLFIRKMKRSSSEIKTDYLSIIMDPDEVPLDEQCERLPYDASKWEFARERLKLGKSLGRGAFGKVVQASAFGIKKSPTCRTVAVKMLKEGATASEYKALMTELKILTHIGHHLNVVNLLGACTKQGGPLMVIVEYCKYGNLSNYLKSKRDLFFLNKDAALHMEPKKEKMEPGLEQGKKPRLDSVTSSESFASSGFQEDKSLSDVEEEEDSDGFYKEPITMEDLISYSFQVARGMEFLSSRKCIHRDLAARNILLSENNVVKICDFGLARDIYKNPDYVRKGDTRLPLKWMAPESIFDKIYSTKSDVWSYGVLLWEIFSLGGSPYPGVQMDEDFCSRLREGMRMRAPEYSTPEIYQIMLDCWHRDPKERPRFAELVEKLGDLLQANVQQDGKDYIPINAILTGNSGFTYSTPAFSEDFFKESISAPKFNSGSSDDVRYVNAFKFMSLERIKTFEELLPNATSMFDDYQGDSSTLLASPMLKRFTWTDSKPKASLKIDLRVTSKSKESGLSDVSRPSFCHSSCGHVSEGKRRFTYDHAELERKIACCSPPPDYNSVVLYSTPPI

[4] = Intrinsic permeability across Caco-2 cell monolayers; conditions: human
[5] = biological target: T1, Vascular endothelial growth factor receptor 2; experiment: Inhibition of VEGFR2 by [32P]ATP-competitive radioassay
[6] = biological target: T2, Vascular endothelial growth factor receptor 1; experiment: Inhibition of VEGFR1 by HTRF assay
Target sequence in this assay (P17948 whole entry): as the sequence (P17948 whole entry, looked up) above

[7] = biological target: T1, Vascular endothelial growth factor receptor 2; experiment: Inhibition of VEGFR2 by HTRF assay

T1 sequence (P35968 whole entry): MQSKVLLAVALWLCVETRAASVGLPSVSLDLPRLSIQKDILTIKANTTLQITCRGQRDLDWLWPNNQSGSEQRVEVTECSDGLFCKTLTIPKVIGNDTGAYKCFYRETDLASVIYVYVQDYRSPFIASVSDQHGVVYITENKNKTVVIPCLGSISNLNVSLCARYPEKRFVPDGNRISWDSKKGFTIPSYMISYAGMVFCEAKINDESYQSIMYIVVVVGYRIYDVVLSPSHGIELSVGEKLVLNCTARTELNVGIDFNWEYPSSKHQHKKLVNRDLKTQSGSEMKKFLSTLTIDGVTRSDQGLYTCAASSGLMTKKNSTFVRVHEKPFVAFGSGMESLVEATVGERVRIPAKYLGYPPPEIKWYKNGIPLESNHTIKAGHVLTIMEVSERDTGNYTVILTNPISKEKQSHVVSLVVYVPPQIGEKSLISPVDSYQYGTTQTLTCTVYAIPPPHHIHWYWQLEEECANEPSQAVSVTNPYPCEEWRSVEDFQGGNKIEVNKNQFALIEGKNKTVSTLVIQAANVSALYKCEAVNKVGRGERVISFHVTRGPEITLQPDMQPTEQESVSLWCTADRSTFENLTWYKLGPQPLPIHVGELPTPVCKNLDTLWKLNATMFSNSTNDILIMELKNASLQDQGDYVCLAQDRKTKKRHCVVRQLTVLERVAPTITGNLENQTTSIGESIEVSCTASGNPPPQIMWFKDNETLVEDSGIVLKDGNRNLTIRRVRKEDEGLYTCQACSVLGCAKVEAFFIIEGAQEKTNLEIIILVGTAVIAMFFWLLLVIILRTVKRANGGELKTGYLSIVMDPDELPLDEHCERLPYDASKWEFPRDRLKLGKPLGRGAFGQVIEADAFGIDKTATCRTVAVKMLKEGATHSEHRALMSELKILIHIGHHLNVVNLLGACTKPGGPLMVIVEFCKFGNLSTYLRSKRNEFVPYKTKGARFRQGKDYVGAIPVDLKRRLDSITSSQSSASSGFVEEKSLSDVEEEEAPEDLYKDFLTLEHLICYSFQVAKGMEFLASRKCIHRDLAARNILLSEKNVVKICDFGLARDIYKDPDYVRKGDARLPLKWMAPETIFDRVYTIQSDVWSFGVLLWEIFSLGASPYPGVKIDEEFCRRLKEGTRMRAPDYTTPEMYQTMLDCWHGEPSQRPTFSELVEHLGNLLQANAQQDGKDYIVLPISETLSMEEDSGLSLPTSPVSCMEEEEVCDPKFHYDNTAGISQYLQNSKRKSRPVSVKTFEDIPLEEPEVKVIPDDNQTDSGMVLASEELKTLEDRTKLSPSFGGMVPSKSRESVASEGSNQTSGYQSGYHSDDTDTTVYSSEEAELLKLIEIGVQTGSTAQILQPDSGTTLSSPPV

| SMILES | IC50 [1] [nM] | IC50 [2] [nM] | IC50 [3] [nM] | Papp [4] [×10⁻⁶ cm/s] | Ki [5] [nM] | IC50 [6] [nM] | IC50 [7] [nM] |
| --- | --- | --- | --- | --- | --- | --- | --- |
| Cc1noc(NCc2ccncc2)c1C(=O)Nc1ccc(C(C)(C)C)cc1 | 210 | 280 | 420 |  |  |  |  |
| Cn1cnc(NCc2ccncc2)c1C(=O)Nc1cccc(C(F)(F)F)c1 | 550 | 650 | 790 |  |  |  |  |
| Cc1cc(NC(=O)c2c(C)noc2NCc2ccncc2)ccc1C(F)(F)F | 590 | 870 | 1440 |  |  |  |  |
| Cc1noc(NCc2ccncc2)c1C(=O)Nc1ccc(Oc2ccccc2)cc1 | > 10000 | > 10000 | > 10000 |  |  |  |  |
| COc1ccc(NC(=O)c2c(C)noc2NCc2ccncc2)cc1OC | > 10000 | 1190 | 3350 |  |  |  |  |
| COc1ccc(NC(=O)c2c(NCc3ccncc3)ncn2C)cc1OC | 57 | 210 | 350 | 8.22 |  |  |  |
| Cn1cnc(NCc2ccncc2)c1C(=O)Nc1ccc(Cl)c(C(F)(F)F)c1 | 170 | 950 | 1260 | 6.15 |  |  |  |
| Cc1cc(NC(=O)c2c(NCc3ccncc3)ncn2C)ccc1C(F)(F)F | 64 | 210 | 510 | 7.1 | 160 |  |  |
| Cn1ncc(NCc2ccncc2)c1C(=O)Nc1cccc(C(F)(F)F)c1 | 1340 | 750 | 1060 |  |  |  |  |
| Cn1ncc([N+](=O)[O-])c1C(=O)O |  |  |  | 5.4 |  |  |  |
| Cn1ncc(NCc2ccncc2)c1C(=O)Nc1ccc(C(F)(F)F)c(C(F)(F)F)c1 | 130 | 840 | 920 |  |  |  |  |
| Cn1cnc(NCc2ccncc2)c1C(=O)Nc1ccc(-c2ccccc2)cc1 | > 10000 | 3770 | > 10000 |  |  |  |  |
| Cn1cnc(NCc2ccncc2)c1C(=O)Nc1cnc2ccccc2c1 | 920 | 230 | 350 |  |  |  |  |
| Cn1cnc(NCc2cccnc2)c1C(=O)Nc1ccc(C(F)(F)F)cc1 | > 10000 | > 10000 | > 10000 |  |  |  |  |
| Cn1cnc(NCc2ccncc2)c1C(=O)Nc1ccc(Cl)c(Cl)c1 | 96 | 370 | 550 | 7.03 |  |  |  |
| Cn1cnc(NCc2ccncc2)c1C(=O)Nc1cc(C(F)(F)F)cc(C(F)(F)F)c1 | 150 | 740 | 1060 |  |  |  |  |
| Cc1noc(NCc2ccncc2)c1C(=O)Nc1cccc(Cl)c1 | > 10000 | > 10000 | > 10000 |  |  |  |  |
| Cn1ncc(NCc2ccncc2)c1C(=O)Nc1ccc(C(F)(F)F)cc1 | 130 | 280 | 310 |  |  |  |  |
| Cc1noc(NCc2ccncc2)c1C(=O)Nc1ccc(Cl)cc1 | > 10000 | > 10000 | > 10000 |  |  |  |  |
| Cn1ncc(NCc2ccncc2)c1C(=O)Nc1cc(C(F)(F)F)cc(C(F)(F)F)c1 | 210 | 1120 | 1230 |  |  |  |  |
| Cn1ncc(NCc2ccncc2)c1C(=O)Nc1ccc(C(C)(C)C)cc1 | 45 | 130 | 180 | 6.25 |  |  |  |
| Cn1ncc(NCc2ccncc2)c1C(=O)Nc1ccc(Cl)cc1 | 1000 | 4580 | > 10000 |  |  |  |  |
| CC(C)c1ccc(NC(=O)c2c(NCc3ccncc3)ncn2C)cc1 | 75 | 180 | 270 | 6.2 |  |  |  |

| SMILES | IC50 [1] [nM] | IC50 [2] [nM] | IC50 [3] [nM] | Papp [4] [×10⁻⁶ cm/s] | Ki [5] [nM] | IC50 [6] [nM] | IC50 [7] [nM] |
| --- | --- | --- | --- | --- | --- | --- | --- |
| Cn1cnc(NCc2ccncc2)c1C(=O)Nc1ccc2cn[nH]c2c1 | > 10000 | 5730 | > 10000 |  |  |  |  |
| Cn1cnc(NCc2ccncc2)c1C(=O)Nc1ccc(C(F)(F)F)c(C(F)(F)F)c1 | 110 | 580 | 690 |  |  |  |  |
| Cn1ncc(NCc2ccc3c(c2)OCO3)c1C(=O)Nc1cccc(C(F)(F)F)c1 | > 10000 |  |  |  |  | 5290 | > 10000 |
| Cc1noc(NCc2ccncc2)c1C(=O)Nc1cccc(C(F)(F)F)c1 | 2270 | 1560 | 1690 |  |  |  |  |
| Cn1ncc(NCc2ccncc2)c1C(=O)Nc1cccc(Cl)c1 | > 10000 | 2060 | 3220 |  |  |  |  |
| Cn1ncc(NCc2ccncc2)c1C(=O)Nc1ccc(Cl)c(Cl)c1 | 82 | 250 | 360 | 6.73 |  |  |  |
| Cn1cnc(NCc2ccncc2)c1C(=O)Nc1ccc(C(F)(F)F)cc1 | 9600 | 1980 | 6000 |  |  |  |  |
| Cn1cnc(NCc2ccncc2)c1C(=O)Nc1ccc(C(F)(F)F)c(Cl)c1 | 88 | 290 | 350 | 3.6 |  |  |  |
| Cn1cnc(NCc2ccncc2)c1C(=O)Nc1ccc(Cc2ccccc2)cc1 | > 10000 | 5570 | > 10000 |  |  |  |  |
| Cn1ncc(NCc2ccncc2)c1C(=O)Nc1ccc(Cl)c(C(F)(F)F)c1 | 110 | 1130 | 1360 |  |  |  |  |
| Cc1ccc(NC(=O)c2c(NCc3ccncc3)ncn2C)c(F)c1 | 1250 | 840 | 1350 |  |  |  |  |
| Cn1ncc(NCc2ccncc2)c1C(=O)Nc1ccc(C(F)(F)F)c(Cl)c1 | 79 | 210 | 440 |  |  |  |  |
| Cc1cc(NC(=O)c2c(NCc3ccncc3)cnn2C)ccc1C(F)(F)F | 69 | 330 | 560 | 5.52 |  |  |  |
| Cc1noc(NCc2ccncc2)c1C(=O)Nc1cnc2ccccc2c1 | 3540 | 940 | 1220 |  |  |  |  |
| Cc1noc(NCc2ccncc2)c1C(=O)Nc1ccc(C(F)(F)F)c(Cl)c1 | 320 | 560 | 1110 |  |  |  |  |
| Cc1noc(NCc2ccncc2)c1C(=O)Nc1ccc(-c2ccccc2)cc1 | > 10000 | > 10000 | > 10000 |  |  |  |  |
| O=C(Nc1cnc2ccccc2c1)c1ccccc1NCc1ccncc1 |  |  |  | 2.88 |  |  |  |
| COc1ccc(NC(=O)c2c(NCc3ccncc3)cnn2C)cc1OC | 91 | 350 | 510 |  |  |  |  |
| Cn1cnc(NCc2ccc3c(c2)OCO3)c1C(=O)Nc1ccc(C(F)(F)F)cc1 | > 10000 |  |  |  |  | 1680 | 2550 |
| Cn1ncc(NCc2cccnc2)c1C(=O)Nc1cccc(C(F)(F)F)c1 | > 10000 | > 10000 | > 10000 |  |  |  |  |
| Cn1cnc(NCc2ccncc2)c1C(=O)Nc1cccc(OC(F)(F)F)c1 | 350 | 760 | 1110 |  |  |  |  |
| Cn1cnc(NCc2cccnc2)c1C(=O)Nc1cccc(C(F)(F)F)c1 | > 10000 | > 10000 | > 10000 |  |  |  |  |
| Cn1cnc(NCc2ccncc2)c1C(=O)Nc1ccc2c(c1)CN=N2 | > 10000 | 6020 | > 10000 |  |  |  |  |

| SMILES | IC50 [1] [nM] | IC50 [2] [nM] | IC50 [3] [nM] | Papp [4] [×10⁻⁶ cm/s] | Ki [5] [nM] | IC50 [6] [nM] | IC50 [7] [nM] |
| --- | --- | --- | --- | --- | --- | --- | --- |
| Cc1noc(NCc2ccncc2)c1C(=O)Nc1ccc(Cc2ccccc2)cc1 | > 10000 | 5800 | > 10000 |  |  |  |  |
| Cn1ncc(NCc2ccncc2)c1C(=O)Nc1cnc2ccccc2c1 | 1140 | 280 | 520 |  |  |  |  |
| Cn1cnc(NCc2ccncc2)c1C(=O)Nc1ccc(C(C)(C)C)cc1 | 64 | 87 | 110 | 7.55 | 200 |  |  |
| CC(C)c1ccc(NC(=O)c2c(NCc3ccncc3)cnn2C)cc1 | 88 | 290 | 440 |  |  |  |  |
| Cn1ncc(NCc2cccnc2)c1C(=O)Nc1ccc(C(F)(F)F)cc1 | > 10000 | > 10000 | > 10000 |  |  |  |  |
| Cc1noc(NCc2ccncc2)c1C(=O)Nc1ccc(C(F)(F)F)c(C(F)(F)F)c1 | > 10000 | 4230 | > 10000 |  |  |  |  |
| Cn1cnc(NCc2ccncc2)c1C(=O)Nc1ccc(OC(F)(F)F)cc1 | 110 | 1150 | 1430 |  |  |  |  |
| Cn1cnc(NCc2ccncc2)c1C(=O)Nc1cccc(Cl)c1 | > 10000 | 2060 | 3220 |  |  |  |  |
| Cn1ncc(NCc2ccncc2)c1C(=O)Nc1ccc(Cc2ccccc2)cc1 | > 10000 | 5570 | > 10000 |  |  |  |  |
| Cc1noc(NCc2ccncc2)c1C(=O)Nc1ccc(OC(F)(F)F)cc1 | 910 | 2120 | 3550 |  |  |  |  |
| Cc1noc(NCc2ccncc2)c1C(=O)Nc1ccc(C(C)C)cc1 | 350 | 440 | 760 |  |  |  |  |
| Cn1cnc(NCc2ccncc2)c1C(=O)Nc1ccc(Oc2ccccc2)cc1 | > 10000 | 4290 | > 10000 |  |  |  |  |
| Cc1noc(NCc2ccncc2)c1C(=O)Nc1ccc(Cl)c(Cl)c1 | 930 | 970 | 1250 |  |  |  |  |
| Cn1cnc(NCc2ccncc2)c1C(=O)Nc1ccc(Cl)cc1 | 1650 | 250 | > 10000 | 0.95 |  |  |  |
| Cc1noc(NCc2ccncc2)c1C(=O)Nc1ccc(C(F)(F)F)cc1 | 180 | 370 | 560 |  |  |  |  |
| Cc1ccc(NC(=O)c2c(NCc3ccncc3)cnn2C)cc1C(F)(F)F | 102 | 660 | 930 |  |  |  |  |
| Cn1ncc(NCc2ccncc2)c1C(=O)Nc1ccc(-c2ccccc2)cc1 | > 10000 | > 10000 | > 10000 |  |  |  |  |
| Cn1cnc(NCc2ccc3c(c2)OCO3)c1C(=O)Nc1cccc(C(F)(F)F)c1 | > 10000 |  |  |  |  | 2270 | 3120 |
| Cn1ncc(NCc2ccncc2)c1C(=O)Nc1cccc(OC(F)(F)F)c1 | 470 | 2060 | 2440 |  |  |  |  |
| Cn1cnc(NCc2ccncc2)c1C(=O)NCc1ccc2c(c1)OCO2 | 740 | 650 | 1120 |  |  |  |  |
| Cc1ccc(NC(=O)c2c(NCc3ccncc3)ncn2C)cc1C(F)(F)F |  | 340 | 610 | 5.93 |  |  |  |
| Cn1ncc(NCc2ccncc2)c1C(=O)Nc1ccc(Oc2ccccc2)cc1 | > 10000 | > 10000 | > 10000 |  |  |  |  |

Source: ChEMBL document CHEMBL1139078, “ortho-Substituted azoles as selective and dual inhibitors of VEGF receptors 1 and 2” (Bioorg Med Chem Lett, 2007)
